Laboratory results from patent publication US20100087516A1, “ANTIBACTERIAL MACROLACTIN A THAT BACILLUS POLYFERMENTICUS KJS-2 PRODUCED IN” (priority 2007, published 2010).

What was measured:
Micrococcus luteus = assay: Bioassay of Macrolactin A on TSB agar medium; type: cell-based; conditions: 10 μl of solution in 50% acetone (2.5 mg/ml)
Protocol: (§1) The strains used for the experiment were Saccharomyces cerevisiae, Vibrio vulnificus, Micrococcus luteus and Streptococcus parauberis. Each strain, except Vibrio vulnificus, was inoculated and cultured in TSB medium at 200 rpm for 16 hours at 37° C., and then a 0.5 ml (approximately 28*10^9 cfu/ml) aliquot of the culture medium was spread over TSB agar medium. Vibrio vulnificus, was inoculated and cultured in TSB medium at 200 rpm for 16 hours at 25° C., which is its optimum growth conation, and then the amount of the culture medium was spread over the agar medium. The solvent required for the bioassay is a solvent, which can dissolve Macrolactin A, that has no toxicity against the strains used for the experiment.

Saccharomyces cerevisiae = assay: Bioassay of Macrolactin A on TSB agar medium; type: cell-based; conditions: 10 μl of solution in 50% acetone (2.5 mg/ml)
Protocol: as §1

Streptococcus parauberis = assay: Bioassay of Macrolactin A on TSB agar medium; type: cell-based; conditions: 10 μl of solution in 50% acetone (2.5 mg/ml)
Protocol: as §1

Vibrio vulnificus = assay: Bioassay of Macrolactin A on TSB agar medium; type: cell-based; conditions: 10 μl of solution in 50% acetone (2.5 mg/ml)
Protocol: as §1

VRE5 = assay: Bioassay at a gradient of concentration on TSB agar medium; type: cell-based, vancomycin-resistant enterococci; conditions: 10 μl of solution in 50% acetone
Heat and pH stability = type: physicochemical
HIV = conditions: cited from earlier work
[1] = test system: methicillin-resistant Staphylococcus aureu (MRSA); conditions: cited from earlier work

CC1CCC/C=C/C=C/C(O)CC(O)C/C=C\C=C\C(O)C/C=C/C=C\C(=O)O1 (stereo not drawn) [Macrolactin A]
antibiotic activity against Micrococcus luteus (Micrococcus luteus): excellent antibiotic activity | antibiotic activity against Saccharomyces cerevisiae (Saccharomyces cerevisiae): excellent antibiotic activity | antibiotic activity against Streptococcus parauberis (Streptococcus parauberis): excellent antibiotic activity | antibiotic activity against Vibrio vulnificus (Vibrio vulnificus): excellent antibiotic activity | concentration of solution that inhibits VRE5 on TSB agar medium (VRE5): above 1.25 mg/ml | heat stability (Heat and pH stability): excellent heat stability | stability in weak acidic and neutral environments (Heat and pH stability; weak acidic and neutral environments): very stable | antiviral activity against HIV (HIV): antiviral activity | antibiotic activity against MRSA [1]: antibiotic activity only against MRSA
